Results: the supplement of paper PMC10307832

How the values were obtained:
Experiment in all cases: relative viability (nuclei count vs DMSO), 5 days (fraction); higher = more cells survive
Carfilzomib + Decitabine = compound: CC(C)C[C@H](NC(=O)[C@H](CCc1ccccc1)NC(=O)CN1CCOCC1)C(=O)N[C@@H](Cc1ccccc1)C(=O)N[C@@H](CC(C)C)C(=O)[C@@]1(C)CO1 [Carfilzomib] + Nc1ncn([C@H]2C[C@H](O)[C@@H](CO)O2)c(=O)n1 [Decitabine] (partner 2 µM)
Summary of the method: (§1)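 After 5 days of treatment, lung cancer cells in 1536-well plates were fixed and stained in a single step (final 0.05% Triton X-100, 1% formaldehyde, 1 ug/ml Hoechst) and their nuclei counted on 4× images. Treatment had been applied by pin tool the day after seeding as one drug alone or as a fixed anchor-drug dose with five library-drug doses (not always all listed) in √10 steps. Relative viability is the nuclei count of treated wells divided by that of vehicle wells, and values are medians of duplicate plates.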

Carfilzomib + Vorinostat = compound: CC(C)C[C@H](NC(=O)[C@H](CCc1ccccc1)NC(=O)CN1CCOCC1)C(=O)N[C@@H](Cc1ccccc1)C(=O)N[C@@H](CC(C)C)C(=O)[C@@]1(C)CO1 [Carfilzomib] + O=C(CCCCCCC(=O)Nc1ccccc1)NO [Vorinostat] (partner 1 µM)
Summary of the method: as §1

Crizotinib + Dasatinib = compound: C[C@@H](Oc1cc(-c2cnn(C3CCNCC3)c2)cnc1N)c1c(Cl)ccc(F)c1Cl [Crizotinib] + Cc1nc(Nc2ncc(C(=O)Nc3c(C)cccc3Cl)s2)cc(N2CCN(CCO)CC2)n1 [Dasatinib] (partner 0.075 µM)
Summary of the method: as §1

Olaparib + Navitoclax = compound: O=C(c1cc(Cc2n[nH]c(=O)c3ccccc23)ccc1F)N1CCN(C(=O)C2CC2)CC1 [Olaparib] + CC1(C)CCC(c2ccc(Cl)cc2)=C(CN2CCN(c3ccc(C(=O)NS(=O)(=O)c4ccc(N[C@H](CCN5CCOCC5)CSc5ccccc5)c(S(=O)(=O)C(F)(F)F)c4)cc3)CC2)C1 [Navitoclax] (partner 0.5 µM)
Summary of the method: as §1

Row | Cell Line | relative viability (Carfilzomib + Decitabine; first compound 0.003162 µM) | relative viability (Carfilzomib + Decitabine; first compound 0.01 µM) | relative viability (Carfilzomib + Decitabine; first compound 0.03162 µM) | relative viability (Carfilzomib + Decitabine; first compound 0.1 µM) | relative viability (Carfilzomib + Vorinostat; first compound 0.003162 µM) | relative viability (Carfilzomib + Vorinostat; first compound 0.01 µM) | relative viability (Carfilzomib + Vorinostat; first compound 0.03162 µM) | relative viability (Carfilzomib + Vorinostat; first compound 0.1 µM) | relative viability (Crizotinib + Dasatinib; first compound 0.01 µM) | relative viability (Crizotinib + Dasatinib; first compound 0.03162 µM) | relative viability (Crizotinib + Dasatinib; first compound 0.1 µM) | relative viability (Crizotinib + Dasatinib; first compound 0.3162 µM) | relative viability (Crizotinib + Dasatinib; first compound 1 µM) | relative viability (Olaparib + Navitoclax; first compound 0.08 µM) | relative viability (Olaparib + Navitoclax; first compound 0.253 µM) | relative viability (Olaparib + Navitoclax; first compound 2.53 µM) | relative viability (Olaparib + Navitoclax; first compound 8 µM) | relative viability (Carfilzomib + Decitabine; first compound 0.001 µM) | relative viability (Carfilzomib + Vorinostat; first compound 0.001 µM)
1 | NCI-H1395 | 0.756 | 0.602 | 0.441 | 0.319 | 0.791 | 0.469 | 0.306 | 0.316 | 0.388 | 0.376 | 0.409 | 0.391 | 0.358 | 1.27 | 0.937 | 0.776 | 0.573 |  | 
2 | EMC-BAC-2 | 1.02 | 0.954 | 0.911 | 0.296 | 0.587 | 0.524 | 0.247 | 0.126 | 0.369 | 0.313 | 0.282 | 0.363 | 0.331 | 1.37 | 1.1 | 0.999 | 1.01 | 1 | 0.434
3 | PC-3 [JPC-3] | 0.879 | 0.89 | 0.64 | 0.301 | 0.808 | 1.1 | 0.475 | 0.229 | 1.07 | 0.996 | 1.01 | 1.02 | 0.975 | 0.784 | 0.729 | 0.743 | 0.76 | 0.832 | 0.784
4 | NCI-H1734 | 0.517 | 0.48 | 0.474 | 0.136 | 0.932 | 0.592 | 0.119 | 0.109 | 0.49 | 0.455 | 0.397 |  | 0.555 | 0.854 | 0.709 | 0.765 | 0.531 | 0.482 | 0.75
5 | HOP-62 | 0.207 | 0.249 | 0.182 | 0.0817 | 0.632 | 0.215 | 0.0689 | 0.0634 | 0.581 | 0.637 | 0.613 | 0.663 | 0.716 | 1.22 | 0.929 | 1.06 | 0.823 | 0.25 | 0.559
6 | HARA | 0.747 | 0.704 | 0.192 | 0.119 | 0.561 | 0.501 | 0.436 | 0.0635 | 0.28 | 0.279 | 0.256 |  | 0.198 | 1.14 | 1.08 | 1.04 | 0.99 | 0.669 | 0.507
7 | NCI-H2023 | 0.23 | 0.173 | 0.203 | 0.0666 | 0.657 | 0.619 | 0.224 | 0.0546 | 0.532 | 0.537 | 0.449 | 0.258 | 0.389 | 1.05 | 0.973 | 0.959 | 0.787 | 0.184 | 0.471
8 | NCI-H1993 | 0.589 | 0.658 | 0.541 | 0.461 | 0.804 | 0.876 | 0.366 | 0.288 |  | 0.483 | 0.488 | 0.49 | 0.511 | 0.872 | 0.914 | 1.19 | 1.27 | 0.542 | 0.631
9 | NCI-H460 | 0.514 | 0.394 | 0.414 | 0.0292 | 0.661 | 0.68 | 0.093 | 0.0182 | 0.358 | 0.521 | 0.478 | 0.424 | 0.479 | 1.18 | 0.94 | 0.815 | 0.424 | 0.453 | 0.743
10 | NCI-H596 | 0.999 | 1.03 | 1.16 | 0.308 | 0.612 | 0.448 | 0.173 | 0.159 | 0.634 | 0.594 | 0.677 | 0.658 | 0.722 | 0.899 | 0.902 | 0.878 | 0.519 | 0.904 | 0.585
11 | NCI-H441 | 0.258 | 0.211 | 0.122 | 0.14 | 0.683 | 0.546 | 0.129 | 0.141 | 0.531 | 0.524 | 0.497 |  | 0.51 |  | 0.406 | 0.706 | 0.582 | 0.23 | 0.777
12 | COR-L 105 | 0.752 | 0.751 | 0.466 | 0.34 | 1 | 0.805 | 0.381 | 0.283 | 0.36 | 0.328 | 0.324 | 0.303 | 0.257 | 0.781 | 0.822 | 0.574 | 0.48 | 0.621 | 0.95
13 | NCI-H322M | 0.756 | 0.615 | 0.718 | 0.505 | 0.898 | 0.952 | 0.788 | 0.38 | 0.23 | 0.251 | 0.232 | 0.262 | 0.263 | 1.34 | 1.07 | 1.23 | 1.01 | 0.621 | 0.796
14 | HCC-827 | 0.371 | 0.31 | 0.269 | 0.133 | 0.913 | 0.943 | 0.673 | 0.189 | 0.287 | 0.289 | 0.255 | 0.225 | 0.326 | 0.979 | 0.933 | 0.978 | 0.855 | 0.287 | 0.821
15 | NCI-H1651 | 0.677 | 0.32 | 0.163 | 0.0885 | 0.597 | 0.447 | 0.188 | 0.104 | 0.374 | 0.389 | 0.456 | 0.403 | 0.314 | 0.97 | 0.814 | 0.654 | 0.257 | 0.467 | 0.602
16 | EKVX | 0.36 | 0.335 |  | 0.128 | 0.958 | 0.783 | 0.561 | 0.231 | 0.372 | 0.572 | 0.514 | 0.492 | 0.648 | 1.1 | 0.876 | 0.97 | 0.944 | 0.371 | 0.663
17 | 201T | 0.901 | 0.798 | 0.873 | 0.795 | 1 | 0.985 | 0.93 | 0.514 | 0.599 | 0.628 | 0.614 | 0.548 | 0.569 | 1.18 | 1.2 | 1.19 | 1.15 | 0.818 | 0.929
18 | NCI-H2009 | 0.391 | 0.401 | 0.268 | 0.0605 | 0.821 | 0.757 | 0.179 | 0.0653 | 0.265 | 0.296 | 0.253 | 0.249 | 0.275 | 1.31 | 1.05 | 1.1 | 0.996 | 0.401 | 0.717
19 | NCI-H1975 | 0.451 | 0.365 | 0.132 | 0.147 | 0.611 | 0.261 | 0.129 | 0.135 | 0.347 | 0.381 | 0.349 | 0.387 | 0.43 | 1.28 | 0.957 | 1.14 | 1.02 | 0.378 | 0.706
20 | NCI-H2347 | 0.608 | 0.66 | 0.594 | 0.389 | 0.53 | 0.432 | 0.352 | 0.303 | 0.305 | 0.272 | 0.312 | 0.244 | 0.25 | 0.9 | 0.779 | 0.692 | 0.562 | 0.625 | 0.712
21 | PC-14 | 0.273 | 0.23 | 0.0558 | 0.0667 | 0.754 | 0.228 | 0.0369 | 0.0418 | 0.286 | 0.241 | 0.245 | 0.201 | 0.238 | 1.04 | 0.934 | 0.867 | 0.722 | 0.198 | 0.71
22 | COR-L23 | 0.443 | 0.386 | 0.0979 | 0.0901 | 0.438 | 0.212 | 0.0648 | 0.0718 | 0.508 | 0.424 | 0.519 | 0.437 | 0.533 | 1.12 | 0.877 | 0.713 | 0.44 | 0.383 | 0.454
23 | LK-2 | 0.369 | 0.193 | 0.119 | 0.108 | 0.345 | 0.177 | 0.189 | 0.175 | 0.369 | 0.338 | 0.253 |  | 0.285 | 0.887 | 0.696 | 0.876 | 0.951 | 0.276 | 0.257
24 | NCI-H520 | 0.5 | 0.398 | 0.16 | 0.173 | 0.605 | 0.192 | 0.156 | 0.148 | 0.19 | 0.192 | 0.2 | 0.271 | 0.155 | 1.32 | 0.932 | 1.08 | 0.601 | 0.494 | 0.684
25 | ChaGo-K-1 | 0.55 | 0.494 | 0.322 | 0.174 | 0.802 | 0.589 | 0.235 | 0.157 | 0.58 | 0.573 | 0.487 | 0.424 | 0.624 | 1.44 | 0.989 | 0.953 | 0.848 | 0.476 | 0.718
26 | NCI-H838 | 0.498 | 0.434 | 0.27 | 0.178 | 0.774 | 0.719 | 0.199 | 0.152 | 0.208 | 0.303 | 0.313 | 0.248 | 0.261 | 1.12 | 1.06 | 1.03 | 1.03 | 0.437 | 0.922
27 | NCI-H2126 | 0.625 | 0.552 | 0.597 | 0.555 | 0.868 | 0.904 | 0.716 | 0.222 | 0.484 | 0.646 | 0.569 | 0.557 | 0.545 | 0.875 | 0.824 | 0.749 | 0.853 | 0.627 | 0.748
28 | HCC-366 | 0.412 | 0.352 | 0.447 | 0.086 | 0.444 | 0.313 | 0.0693 | 0.0215 | 0.592 | 0.649 | 0.618 |  | 0.458 | 1.08 | 0.985 | 0.827 | 0.492 | 0.32 | 0.315
